In ChEMBL document CHEMBL4007384, “Synthesis and optimization of furano[3,2-d]pyrimidines as selective spleen tyrosine kinase (Syk) inhibitors” (Bioorg Med Chem Lett, 2016) one finds IC50 and EC50 data, which are given here for four compounds.

SMILES strings stand for the structures. A value given as a limit tells only on which side of the number the result lay.

The target in test [1] is T1, Mitogen-activated protein kinase kinase kinase kinase 2 (Homo sapiens, UniProt Q12851).
T1 sequence (Q12851 whole entry): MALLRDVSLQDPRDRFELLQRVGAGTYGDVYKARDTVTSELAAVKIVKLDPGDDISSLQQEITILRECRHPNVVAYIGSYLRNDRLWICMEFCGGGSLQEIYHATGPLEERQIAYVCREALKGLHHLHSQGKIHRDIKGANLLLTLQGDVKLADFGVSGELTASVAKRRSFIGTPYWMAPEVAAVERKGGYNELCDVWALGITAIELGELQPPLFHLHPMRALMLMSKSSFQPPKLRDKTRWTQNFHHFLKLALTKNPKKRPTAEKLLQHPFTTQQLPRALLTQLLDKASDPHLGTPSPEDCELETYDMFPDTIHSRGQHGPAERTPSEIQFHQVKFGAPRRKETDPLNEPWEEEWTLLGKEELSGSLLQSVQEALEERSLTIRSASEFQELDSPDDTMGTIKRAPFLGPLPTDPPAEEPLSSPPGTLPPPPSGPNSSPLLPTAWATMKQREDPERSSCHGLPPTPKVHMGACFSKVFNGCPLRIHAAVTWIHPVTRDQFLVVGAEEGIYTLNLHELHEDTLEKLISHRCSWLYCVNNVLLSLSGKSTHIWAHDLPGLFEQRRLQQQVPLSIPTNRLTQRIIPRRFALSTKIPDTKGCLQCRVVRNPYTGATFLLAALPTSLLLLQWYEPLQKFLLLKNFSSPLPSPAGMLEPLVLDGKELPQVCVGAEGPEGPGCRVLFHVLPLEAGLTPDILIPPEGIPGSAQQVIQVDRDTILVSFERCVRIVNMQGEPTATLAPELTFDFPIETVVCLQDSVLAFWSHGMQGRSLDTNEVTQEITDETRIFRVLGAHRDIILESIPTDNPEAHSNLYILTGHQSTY
As to the kind of experiment: Inhibition of MAP4K2 (unknown origin) after 60 mins by TR-FRET assay. Background: In TR-FRET formats the signal depends on donor and acceptor labels being close together.

Test [2] concerns the target Cyclin-dependent kinase 9 (Homo sapiens, UniProt P50750). As to the kind of experiment: Inhibition of CDK9 (unknown origin) after 60 mins by TR-FRET assay.
In test [3] the target is Insulin-like growth factor 1 receptor (Homo sapiens, UniProt P08069). As to the kind of experiment: Inhibition of IGF1R (unknown origin) after 60 mins by TR-FRET assay.
For test [4], the target named is Death-associated protein kinase 3 (Homo sapiens, UniProt O43293). As to the kind of experiment: Inhibition of ZIPK (unknown origin) after 60 mins by TR-FRET assay.
Test [5] has as its target Tyrosine-protein kinase JAK2 (Homo sapiens, UniProt O60674). The test can be described thus: Inhibition of JAK2 (unknown origin) after 60 mins by TR-FRET assay.
Test [6] has as its target Serine/threonine-protein kinase pim-1 (Homo sapiens, UniProt P11309). As to the kind of experiment: Inhibition of PIM1 (unknown origin) after 60 mins by TR-FRET assay.
Test [7] addresses Rho-associated protein kinase 1 (Homo sapiens, UniProt Q13464). The test can be described thus: Inhibition of ROCK1(unknown origin) after 60 mins by TR-FRET assay.
Test [8] addresses Cyclin-dependent kinase 7 (Homo sapiens, UniProt P50613). The test can be described thus: Inhibition of CDK7 (unknown origin) after 60 mins by TR-FRET assay.
For test [9], the target named is Mitogen-activated protein kinase kinase kinase kinase 4 (Homo sapiens, UniProt O95819). As to the kind of experiment: Inhibition of MAP4K4 (unknown origin) after 60 mins by TR-FRET assay.
Test [10] concerns the target Dual specificity mitogen-activated protein kinase kinase 2 (Homo sapiens, UniProt P36507). The test can be described thus: Inhibition of MEK2 (unknown origin) after 60 mins by TR-FRET assay.
The target in test [11] is Calcium/calmodulin-dependent protein kinase type 1D (Homo sapiens, UniProt Q8IU85). As to the kind of experiment: Inhibition of human CAMK1D (unknown origin) after 60 mins by TR-FRET assay.
Test [12] deals with T2, Tyrosine-protein kinase JAK3 (Homo sapiens, UniProt P52333).
T2 sequence (P52333 whole entry): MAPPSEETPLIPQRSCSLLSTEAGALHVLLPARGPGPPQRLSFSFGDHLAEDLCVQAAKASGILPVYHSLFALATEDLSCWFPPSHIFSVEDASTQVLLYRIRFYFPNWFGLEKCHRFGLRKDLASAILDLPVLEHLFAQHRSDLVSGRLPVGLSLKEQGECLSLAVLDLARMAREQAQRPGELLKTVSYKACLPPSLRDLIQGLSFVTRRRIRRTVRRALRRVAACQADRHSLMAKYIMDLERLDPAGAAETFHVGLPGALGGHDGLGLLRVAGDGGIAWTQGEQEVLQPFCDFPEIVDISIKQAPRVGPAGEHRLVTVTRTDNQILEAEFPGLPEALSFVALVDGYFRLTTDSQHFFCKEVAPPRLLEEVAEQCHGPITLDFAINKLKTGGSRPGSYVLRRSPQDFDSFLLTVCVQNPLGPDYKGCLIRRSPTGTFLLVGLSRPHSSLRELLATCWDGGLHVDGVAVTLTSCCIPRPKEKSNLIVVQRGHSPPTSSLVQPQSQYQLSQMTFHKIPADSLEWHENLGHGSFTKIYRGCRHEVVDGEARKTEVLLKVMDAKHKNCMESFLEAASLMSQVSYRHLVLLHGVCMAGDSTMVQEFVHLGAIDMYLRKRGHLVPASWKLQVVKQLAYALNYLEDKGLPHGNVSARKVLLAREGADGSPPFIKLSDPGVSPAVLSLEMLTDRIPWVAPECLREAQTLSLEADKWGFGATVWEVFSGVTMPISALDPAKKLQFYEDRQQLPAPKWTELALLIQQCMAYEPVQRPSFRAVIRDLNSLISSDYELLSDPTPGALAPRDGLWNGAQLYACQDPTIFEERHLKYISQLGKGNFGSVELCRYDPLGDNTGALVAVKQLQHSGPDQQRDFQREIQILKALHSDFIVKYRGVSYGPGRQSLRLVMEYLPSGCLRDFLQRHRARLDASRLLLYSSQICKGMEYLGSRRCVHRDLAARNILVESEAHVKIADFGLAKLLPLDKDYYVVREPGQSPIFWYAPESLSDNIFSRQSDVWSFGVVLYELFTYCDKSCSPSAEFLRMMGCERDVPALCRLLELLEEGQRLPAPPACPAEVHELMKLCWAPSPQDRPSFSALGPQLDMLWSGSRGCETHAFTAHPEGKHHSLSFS
As to the kind of experiment: Inhibition of JAK3 (unknown origin) after 60 mins by TR-FRET assay.

The target in another test is MAP kinase p38 (Homo sapiens, UniProt O15264+Q15759+Q16539+P53778). The test can be described thus: Inhibition of p38 (unknown origin) after 60 mins by TR-FRET assay.
Another test deals with Wee1-like protein kinase (Homo sapiens, UniProt P30291). As to the kind of experiment: Inhibition of Wee1 (unknown origin) after 60 mins by TR-FRET assay.
Test [13] has as its target G protein-coupled receptor kinase 5 (Homo sapiens, UniProt P34947). The test can be described thus: Inhibition of GRK5 (unknown origin) after 60 mins by TR-FRET assay.
Test [14] addresses Tyrosine-protein kinase SYK (Homo sapiens, UniProt P43405).
Description: Inhibition of Syk in human Ramos B cells assessed as decrease in intracellular calcium flux measured for 3.5 mins by calcium-5 dye based FLIPR assay

Sequence of Cyclin-dependent kinase 7 (P50613 whole entry): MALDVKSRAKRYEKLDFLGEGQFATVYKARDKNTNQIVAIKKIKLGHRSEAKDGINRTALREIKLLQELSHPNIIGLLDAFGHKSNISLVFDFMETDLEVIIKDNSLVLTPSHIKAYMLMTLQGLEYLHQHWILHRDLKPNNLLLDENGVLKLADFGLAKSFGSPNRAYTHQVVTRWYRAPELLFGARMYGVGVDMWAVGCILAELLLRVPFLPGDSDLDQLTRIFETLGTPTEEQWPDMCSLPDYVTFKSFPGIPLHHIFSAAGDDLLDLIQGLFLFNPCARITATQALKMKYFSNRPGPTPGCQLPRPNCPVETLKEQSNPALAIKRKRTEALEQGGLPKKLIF
Sequence of Wee1-like protein kinase (P30291 whole entry): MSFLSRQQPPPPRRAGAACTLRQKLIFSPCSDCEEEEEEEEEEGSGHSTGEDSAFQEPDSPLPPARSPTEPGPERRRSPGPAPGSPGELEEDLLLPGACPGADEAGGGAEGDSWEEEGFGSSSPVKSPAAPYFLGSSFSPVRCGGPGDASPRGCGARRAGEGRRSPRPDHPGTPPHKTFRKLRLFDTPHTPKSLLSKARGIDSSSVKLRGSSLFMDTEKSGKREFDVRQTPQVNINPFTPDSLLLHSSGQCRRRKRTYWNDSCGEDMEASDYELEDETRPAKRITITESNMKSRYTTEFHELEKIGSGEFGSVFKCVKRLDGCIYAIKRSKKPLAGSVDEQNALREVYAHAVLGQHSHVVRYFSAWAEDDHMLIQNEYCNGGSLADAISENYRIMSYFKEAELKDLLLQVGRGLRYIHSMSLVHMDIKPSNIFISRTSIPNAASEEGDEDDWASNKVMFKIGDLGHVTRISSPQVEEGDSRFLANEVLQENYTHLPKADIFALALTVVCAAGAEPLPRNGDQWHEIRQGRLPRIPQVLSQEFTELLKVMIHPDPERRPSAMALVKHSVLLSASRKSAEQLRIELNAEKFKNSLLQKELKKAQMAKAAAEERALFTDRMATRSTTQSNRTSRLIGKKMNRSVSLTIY
Sequence of Calcium/calmodulin-dependent protein kinase type 1D (Q8IU85 whole entry): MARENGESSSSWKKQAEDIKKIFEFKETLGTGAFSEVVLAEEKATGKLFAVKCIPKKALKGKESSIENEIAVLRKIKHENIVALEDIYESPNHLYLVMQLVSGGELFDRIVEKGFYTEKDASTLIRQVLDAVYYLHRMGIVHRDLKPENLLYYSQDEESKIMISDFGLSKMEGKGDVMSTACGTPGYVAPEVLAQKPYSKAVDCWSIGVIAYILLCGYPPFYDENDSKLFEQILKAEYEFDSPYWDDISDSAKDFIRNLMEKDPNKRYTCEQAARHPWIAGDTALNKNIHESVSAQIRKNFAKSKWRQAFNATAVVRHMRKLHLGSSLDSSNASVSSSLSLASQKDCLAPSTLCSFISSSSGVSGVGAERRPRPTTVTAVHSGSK
Sequence of Tyrosine-protein kinase JAK2 (O60674 whole entry): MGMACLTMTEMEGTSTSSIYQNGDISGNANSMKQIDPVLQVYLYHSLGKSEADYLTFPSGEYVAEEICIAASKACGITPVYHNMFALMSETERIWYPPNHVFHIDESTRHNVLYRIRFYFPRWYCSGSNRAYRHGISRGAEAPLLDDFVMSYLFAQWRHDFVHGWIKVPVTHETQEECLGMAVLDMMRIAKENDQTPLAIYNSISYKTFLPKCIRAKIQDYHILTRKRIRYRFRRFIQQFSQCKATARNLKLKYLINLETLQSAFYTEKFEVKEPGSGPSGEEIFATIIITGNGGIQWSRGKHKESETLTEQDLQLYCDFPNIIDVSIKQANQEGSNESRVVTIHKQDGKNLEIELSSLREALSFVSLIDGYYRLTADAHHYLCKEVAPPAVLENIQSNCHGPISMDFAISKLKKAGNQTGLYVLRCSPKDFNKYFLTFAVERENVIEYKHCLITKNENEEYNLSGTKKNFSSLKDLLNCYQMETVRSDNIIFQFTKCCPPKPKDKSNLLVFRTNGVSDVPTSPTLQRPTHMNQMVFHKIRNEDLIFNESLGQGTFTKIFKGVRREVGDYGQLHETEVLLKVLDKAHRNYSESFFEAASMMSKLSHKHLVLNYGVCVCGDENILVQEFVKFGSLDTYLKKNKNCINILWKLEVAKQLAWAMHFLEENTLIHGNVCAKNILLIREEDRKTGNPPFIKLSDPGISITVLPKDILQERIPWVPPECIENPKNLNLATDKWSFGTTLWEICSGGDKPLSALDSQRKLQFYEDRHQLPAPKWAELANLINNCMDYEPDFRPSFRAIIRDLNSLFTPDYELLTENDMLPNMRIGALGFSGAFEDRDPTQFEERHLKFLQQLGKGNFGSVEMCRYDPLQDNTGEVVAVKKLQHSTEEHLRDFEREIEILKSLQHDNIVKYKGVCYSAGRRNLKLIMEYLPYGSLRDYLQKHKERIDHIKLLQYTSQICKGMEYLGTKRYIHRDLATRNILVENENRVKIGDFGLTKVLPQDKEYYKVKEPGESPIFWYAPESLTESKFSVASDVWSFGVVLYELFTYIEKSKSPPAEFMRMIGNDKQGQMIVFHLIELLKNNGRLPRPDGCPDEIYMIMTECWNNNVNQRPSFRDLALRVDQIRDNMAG
Sequence of Rho-associated protein kinase 1 (Q13464 whole entry): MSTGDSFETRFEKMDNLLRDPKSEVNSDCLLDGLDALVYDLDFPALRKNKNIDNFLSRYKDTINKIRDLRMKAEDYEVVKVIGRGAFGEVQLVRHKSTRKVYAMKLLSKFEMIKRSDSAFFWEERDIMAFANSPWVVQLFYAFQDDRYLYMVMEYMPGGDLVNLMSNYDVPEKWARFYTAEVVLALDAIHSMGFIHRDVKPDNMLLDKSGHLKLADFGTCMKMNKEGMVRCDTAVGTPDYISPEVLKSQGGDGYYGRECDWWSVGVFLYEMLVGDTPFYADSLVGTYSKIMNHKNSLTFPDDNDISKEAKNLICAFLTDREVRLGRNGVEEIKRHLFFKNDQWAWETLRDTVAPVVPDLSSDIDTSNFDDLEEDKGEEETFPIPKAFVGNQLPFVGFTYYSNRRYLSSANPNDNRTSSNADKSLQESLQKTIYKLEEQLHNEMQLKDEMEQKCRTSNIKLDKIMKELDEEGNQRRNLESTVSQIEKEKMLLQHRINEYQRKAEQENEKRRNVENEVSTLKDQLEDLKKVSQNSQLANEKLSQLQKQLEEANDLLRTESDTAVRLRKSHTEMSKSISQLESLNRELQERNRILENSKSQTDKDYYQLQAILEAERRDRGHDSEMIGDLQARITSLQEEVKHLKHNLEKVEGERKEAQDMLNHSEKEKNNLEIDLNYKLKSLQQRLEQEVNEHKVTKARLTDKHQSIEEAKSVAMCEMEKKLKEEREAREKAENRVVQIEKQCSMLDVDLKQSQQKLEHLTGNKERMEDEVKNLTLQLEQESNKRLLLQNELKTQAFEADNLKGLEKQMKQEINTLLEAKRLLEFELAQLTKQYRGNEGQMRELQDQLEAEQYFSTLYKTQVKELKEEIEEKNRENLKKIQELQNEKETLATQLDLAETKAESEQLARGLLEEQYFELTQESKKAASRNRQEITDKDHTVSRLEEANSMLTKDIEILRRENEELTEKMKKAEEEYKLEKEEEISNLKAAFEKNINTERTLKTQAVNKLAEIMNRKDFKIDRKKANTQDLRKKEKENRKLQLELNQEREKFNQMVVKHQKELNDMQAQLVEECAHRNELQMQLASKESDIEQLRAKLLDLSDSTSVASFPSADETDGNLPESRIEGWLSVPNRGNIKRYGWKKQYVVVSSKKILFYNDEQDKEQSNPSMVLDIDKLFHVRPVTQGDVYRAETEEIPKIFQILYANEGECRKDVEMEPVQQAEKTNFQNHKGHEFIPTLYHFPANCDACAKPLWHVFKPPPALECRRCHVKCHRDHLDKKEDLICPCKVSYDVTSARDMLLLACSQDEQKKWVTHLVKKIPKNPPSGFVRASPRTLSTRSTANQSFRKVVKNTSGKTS
Sequence of Mitogen-activated protein kinase kinase kinase kinase 4 (O95819 whole entry): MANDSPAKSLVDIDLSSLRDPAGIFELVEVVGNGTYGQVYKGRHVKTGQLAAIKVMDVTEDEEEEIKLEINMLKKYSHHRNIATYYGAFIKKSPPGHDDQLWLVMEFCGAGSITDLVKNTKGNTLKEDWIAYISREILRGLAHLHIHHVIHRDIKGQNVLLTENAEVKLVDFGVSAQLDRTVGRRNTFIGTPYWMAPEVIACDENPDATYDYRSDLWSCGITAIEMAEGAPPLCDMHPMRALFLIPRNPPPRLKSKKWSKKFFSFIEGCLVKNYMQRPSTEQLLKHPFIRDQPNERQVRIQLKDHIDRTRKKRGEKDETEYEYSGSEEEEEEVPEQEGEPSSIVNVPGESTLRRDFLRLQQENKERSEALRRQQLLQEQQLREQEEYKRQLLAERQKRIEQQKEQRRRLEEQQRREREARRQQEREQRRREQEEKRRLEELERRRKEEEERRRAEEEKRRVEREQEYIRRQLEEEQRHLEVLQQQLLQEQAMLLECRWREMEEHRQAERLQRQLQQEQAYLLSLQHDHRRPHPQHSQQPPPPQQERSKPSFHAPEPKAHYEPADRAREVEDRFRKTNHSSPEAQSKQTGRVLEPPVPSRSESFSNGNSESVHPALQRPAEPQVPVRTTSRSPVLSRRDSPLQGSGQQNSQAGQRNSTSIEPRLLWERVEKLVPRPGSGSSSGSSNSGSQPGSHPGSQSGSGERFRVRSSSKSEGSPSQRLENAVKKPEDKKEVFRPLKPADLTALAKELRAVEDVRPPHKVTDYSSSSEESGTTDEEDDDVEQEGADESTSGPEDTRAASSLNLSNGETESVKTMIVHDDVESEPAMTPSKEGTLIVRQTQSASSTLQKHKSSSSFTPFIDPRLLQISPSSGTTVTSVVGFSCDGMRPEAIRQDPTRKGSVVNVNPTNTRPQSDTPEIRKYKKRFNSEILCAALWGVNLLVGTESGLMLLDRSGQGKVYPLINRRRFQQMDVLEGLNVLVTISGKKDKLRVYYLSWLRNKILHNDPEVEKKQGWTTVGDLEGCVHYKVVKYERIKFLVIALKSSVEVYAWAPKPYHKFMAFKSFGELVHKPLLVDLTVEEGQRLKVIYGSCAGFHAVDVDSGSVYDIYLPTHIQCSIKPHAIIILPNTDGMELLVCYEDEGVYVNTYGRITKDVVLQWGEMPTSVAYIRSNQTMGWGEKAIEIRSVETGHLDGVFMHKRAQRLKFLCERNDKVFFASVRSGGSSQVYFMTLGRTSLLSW

As for `CC1(C)OCC(=O)Nc2cc(Nc3nc(NCC(F)(F)F)c4occc4n3)ccc21`, the IC50 was 2.94 µM in test [1]; over 10 µM in [2]; 6.02 µM in [3]; over 10 µM in [4]; 0.236 µM in test [5]; over 10 µM in [6]. Moreover, the IC50 is 5.78 µM in test [7]; over 10 µM in test [8]; over 10 µM in [9]; over 10 µM in test [10]; over 10 µM in [11]; over 10 µM in [12]. Besides, the IC50 against MAP kinase p38 was over 10 µM; against Wee1-like protein kinase, 9.88 µM; in test [13], over 10 µM. Moreover, a half-maximal effect in test [14] (EC50) was put at 0.017 µM.

Consider `FC(F)(F)CNc1nc(Nc2ccc3cn[nH]c3c2)nc2ccoc12`, for which the IC50 in test [2] is over 10 µM; in test [3], over 10 µM; in test [6], 1.36 µM; in test [7], 8.61 µM; in [8], over 10 µM; in test [9] it was over 10 µM. Also, the IC50 in test [10] is over 10 µM; in [11] it was over 10 µM; in [12], over 10 µM; on MAP kinase p38, over 10 µM; at Wee1-like protein kinase it was over 10 µM; in [13], 8.12 µM. The midpoint of the response in test [14], the EC50, lay at 0.235 µM.

Consider `Cc1n[nH]c2cc(Nc3nc(NC4CC4)c4occc4n3)ccc12`, for which the IC50 was 6.24 µM in test [1]; over 10 µM in test [2]; over 10 µM in test [3]; 4.98 µM in test [4]; 4.17 µM in test [5]; over 10 µM in test [6]. Also, the IC50 is over 10 µM in test [7]; over 10 µM in [8]; 9.43 µM in test [9]; over 10 µM in test [10]; over 10 µM in test [11]; over 10 µM in test [12]. Besides, the IC50 was over 10 µM against MAP kinase p38, over 10 µM against Wee1-like protein kinase and 9.96 µM in test [13].

Consider `FC(F)(F)CNc1nc(Nc2ccc(N3CCOCC3)c(Cl)c2)nc2ccoc12`, for which the IC50 was 1.57 µM in test [1]; over 10 µM in [2]; over 10 µM in test [3]; over 10 µM in test [4]; 2.32 µM in [5]; over 10 µM in [6]. Moreover, the IC50 in test [7], in test [8], in test [9], in test [10], in test [11] and in [12] was over 10 µM in each case. Besides, the IC50 (at Wee1-like protein kinase; in test [13]) was over 10 µM in each case. The EC50 in test [14] turned out to be 0.117 µM.

As a reminder, the IC50 is the point on the concentration scale where inhibition reaches its midpoint. In general, EC50 refers to the concentration needed to bring the measured effect to its halfway point. Low readings indicate greater potency, high ones weaker potency.
